Experimental data published in US20110224297A1, “Methods of administering prostratin and structural analogs thereof” (priority 2008, published 2011).

Legend:
[1] = tested on: resting CD4+ T cells derived from HIV positive patients; assay: Induction of HIV-1 expression in resting CD4+ T cells from HIV positive patients on HAART (p24, co-culture); type: cell-based, human; settings: VPA at 1 mM added to cultures treated with prostratin
Procedure: The ability of prostratin to induce HIV-1 expression in cultures of highly purified resting CD4+ T cells derived from six HIV positive patients on HAART therapy with undetectable plasma viral load (<50 copies/ml) and CD4 cell counts above 350 cells/mm^3 was evaluated. PBMCs were separated using Ficol Hypaque gradient and resting CD4+ T cells were purified using commercially available CD4+ T cell isolation kit (Miltenyi Biotec) Immediately after purification, resting CD4+ T cells were treated for 3 days with two antiretrovirals to which the patient had not previously been exposed. Antiretrovirals were used at concentrations 10 times the 50% inhibitory concentration for wild-type HIV-1 to ensure elimination of any actively replicating virus. Three days after in vitro incubation with antiretrovirals, cells were washed and incubated for 5 h, 24 h, or 48 h with prostratin (50-500 ng/ml), in the absence or presence of 1 mM valproic acid (sodium salt, SIGMA), 10 μg/ml PHA (SIGMA), 50 U IL-2/ml (AIDS depository of reagents, NIH), or in the absence of drugs. At the end of each incubation period, cells were co-cultured with CD8-depleted PBMCs from healthy donors. P24 was measured at days 0, 4, 7, 14, 21, 28, 35 and 42 days.

[2] = In vitro metabolism in human primary hepatocytes; type: in vitro ADME
Procedure: (§1) ^3H-Prostratin was incubated in hepatocyte preparations with 0.75×10^6 hepatocytes/ml for 0, 30, 60, and 120 minutes. Hepatocytes were suspended in William's E medium and incubated with 1 μM or 4 μM ^3H-Prostratin at 37° C. in an atmosphere of 4.7-4.8% CO2. Hepatocyte incubations were terminated by addition of acetonitrile. Incubations were profiled for ^3H-Prostratin and metabolites by high performance liquid chromatography using a radioactivity detector.
(§2) Metabolites were subsequently analyzed by liquid chromatography/tandem mass spectrometry (LC/MS/MS) for putative identification. Seven predominant metabolites, identified as M1 through M6 according to their chromatographic order of elution, were detected among both genders of the three species, including two co-eluting metabolites labeled as M3A or M3B. Among the seven metabolites, five were putatively identified by LC/MS/MS, while structures could not be proposed for M2 and M3B.

[3] = In vitro metabolism in rat primary hepatocytes; type: in vitro ADME
Procedure: as §1, §2

[4] = In vitro metabolism in monkey primary hepatocytes; type: in vitro ADME; settings: monkey hepatocytes of both genders
Procedure: as §1, §2

[5] = Quantitative whole body autoradiography of rats following oral administration; type: in vivo, Long Evans rats
Procedure: The absorption and distribution of ^3H-Prostratin were studied in male and female rats following a single oral administration at 0.2 mg/kg. Four Long Evans male and four Long Evans female rats, after an overnight fast, each received a single oral administration of ^3H-Prostratin as a solution in saline containing <1% of ethanol at a target dose of 0.2 mg/kg. For both males and females, one animal per time point per sex was sacrificed at 1, 4, 8, and 24 hours postdose and carcasses were prepared for whole-body autoradiography (WBA). Blood, plasma, and cellular fraction were analyzed by using liquid scintillation counting (LSC).

[6] = Extent of metabolism by hepatocytes, rank order across species and genders; type: in vitro ADME, rat, monkey, human; settings: 1 μM and 4 μM; up to 120 minutes
Procedure: as §1, §2

[7] = female rats, single oral 0.2 mg/kg
[8] = male rats, single oral 0.2 mg/kg

SMILES | enhancement of HIV-1 replication beyond the prostratin effect [1] | number of metabolites produced ([2]; both genders of human hepatocytes) | extent of metabolism in human compared with male monkeys ([2]; human hepatocytes) | unique human metabolites ([2]; human hepatocytes) | number of metabolites detected ([3]; female rat hepatocytes) | number of metabolites detected ([3]; male rat hepatocytes) | gender difference in metabolism ([3]; male rat versus female rat hepatocytes) | number of metabolites produced [4] | maximum blood concentration of radioactivity [5, 7] | maximum plasma concentration of radioactivity [5, 7] | time of maximum blood and plasma concentrations of radioactivity [5, 7] [hour postdose] | gender-related difference in tissue distribution of radioactivity ([5]; female versus male rats) | tissue distribution of radioactivity ([5]; male and female rats, single oral 0.2 mg/kg) | maximum blood concentration of radioactivity [5, 8] | maximum plasma concentration of radioactivity [5, 8] | time of maximum blood concentration of radioactivity [5, 8] [hours postdose] | time of maximum plasma concentration of radioactivity [5, 8] [hours postdose] | extent of metabolism by hepatocytes, rank order [6]
CCCC(CCC)C(=O)O [VPA, valproic acid, reference compound] | did not significantly enhance |  |  |  |  |  |  |  |  |  |  |  |  |  |  |  |  | 
CC(=O)O[C@@]12C[C@@H](C)[C@@]3(O)[C@@H](C=C(CO)C[C@]4(O)C(=O)C(C)=C[C@@H]34)[C@@H]1C2(C)C [^3H-Prostratin] |  | Five | considerably lower | no unique human metabolites | two | Six | more rapid metabolism | five | 59.7 ng equivalents ^3H-Prostratin/g | 63.7 ng equivalents ^3H-Prostratin/g | 1 | distributed more widely in female tissues than male tissues | Most of the radioactivity was found in the gastrointestinal (GI) tract | 30.5 ng equivalents ^3H-Prostratin/g | 53.5 ng equivalents ^3H-Prostratin/g | 1 | 4 | male monkey>male rat>>female monkey≈male human≈female human>female rat
